For 11 compounds, solubility and inhibition results are on record in ChEMBL document CHEMBL1921729, “A small nonrule of 3 compatible fragment library provides high hit rate of endothiapepsin crystal structures with various fragment chemotypes” (J Med Chem, 2011).

By solubility is commonly meant the concentration that dissolves in the medium under given conditions. Broadly, the inhibition is the share of the control response that was lost under treatment. A lower inhibition goes with a weak effect.

A short description of data set [1]: Solubility of the compound in aqueous buffer at pH 7.4 by UV spectrophotometry. It is filed as physicochemical.
Data set [2] has as its target T1, Endothiapepsin (Cryphonectria parasitica) (UniProt P11838).
T1 sequence (whole entry): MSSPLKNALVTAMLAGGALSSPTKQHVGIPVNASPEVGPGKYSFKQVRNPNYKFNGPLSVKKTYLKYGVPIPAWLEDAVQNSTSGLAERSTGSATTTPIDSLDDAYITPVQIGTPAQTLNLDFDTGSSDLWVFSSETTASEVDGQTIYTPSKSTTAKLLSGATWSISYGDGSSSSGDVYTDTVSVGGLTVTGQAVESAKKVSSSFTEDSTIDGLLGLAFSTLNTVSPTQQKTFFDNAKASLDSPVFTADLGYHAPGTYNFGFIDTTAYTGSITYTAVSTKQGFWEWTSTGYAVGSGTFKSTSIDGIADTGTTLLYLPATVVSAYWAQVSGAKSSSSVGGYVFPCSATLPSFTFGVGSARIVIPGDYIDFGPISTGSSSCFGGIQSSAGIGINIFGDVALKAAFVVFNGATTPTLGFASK
Kind of data set: Inhibition of Cryphonectria parasitica endothiapepsin using Abz-Thr-Ile-Nle-p-nitro-Phe-Gln-Arg-NH2 as substrate at 1 mM by fluorescence spectrophotometry analysis.

`N=C(N)c1ccc(C(F)(F)F)cc1` displayed a solubility in data set [1] of more than 1500 µM. For the same compound, the inhibition in data set [2] worked out at 45%.
The matching figures for `O=C(Cc1ccccc1)Nn1cnc2ccccc21`: more than 1500 µM and 51%.
The matching figures for `N=C(N)SCc1ccc(Cl)cc1`: more than 1500 µM and 84%.
The like results for `c1cc(CNc2ccc3c(c2)OCCO3)ccn1` were, in that order, more than 1500 µM and 50%.
For the compound `OC(COCc1ccccc1F)CN1CCCC1` (configuration not stated), the solubility in data set [1] is more than 1500 µM. This compound yielded an inhibition in data set [2] of 87%.
With `CCN(CC)c1ccc(C(=O)NN)cc1`, in data set [1], the solubility was more than 1500 µM. In addition, the inhibition in data set [2] was found to be 89%.
On to `NC1=NCc2ccccc21`, for which, in data set [1], the solubility was more than 1500 µM. Moreover, the inhibition in data set [2] turned out to be 89%.
For `N=C(N)SCc1ccccc1Cl`, the solubility in data set [1] was more than 1500 µM. This compound returned an inhibition in data set [2] of 93%.
The like results for `O=C(CN1CCCCC1)Nc1ccc2c(c1)OCO2` were, in that order, more than 1500 µM and 49%.
The like results for `CNCc1ccc(Oc2cccnc2)o1` were, in that order, more than 1500 µM and 66%.
The matching figures for `O=C(Cc1cn2ccccc2n1)Nc1ccccc1`: more than 1500 µM and 84%.
